According to patent US8263762B2, “Alkoxy-carbonyl-amino-alkynyl-adenosine compounds and derivatives thereof as A2AR agonists” (Dogwood Pharmaceuticals, Inc., priority 2009, dated 2012):

Legend:
[1] = biological target: T1, recombinant human A2A receptors (Homo sapiens, UniProt P29274); test: Radioligand binding assay, A2A receptor; conditions: recombinant human A2A receptors in Sf9 cell membranes; competition binding
T1 construct: made in house; host or cells: Sf9 insect cells, viral (baculovirus) infection; membranes
T1 sequence (P29274 whole entry): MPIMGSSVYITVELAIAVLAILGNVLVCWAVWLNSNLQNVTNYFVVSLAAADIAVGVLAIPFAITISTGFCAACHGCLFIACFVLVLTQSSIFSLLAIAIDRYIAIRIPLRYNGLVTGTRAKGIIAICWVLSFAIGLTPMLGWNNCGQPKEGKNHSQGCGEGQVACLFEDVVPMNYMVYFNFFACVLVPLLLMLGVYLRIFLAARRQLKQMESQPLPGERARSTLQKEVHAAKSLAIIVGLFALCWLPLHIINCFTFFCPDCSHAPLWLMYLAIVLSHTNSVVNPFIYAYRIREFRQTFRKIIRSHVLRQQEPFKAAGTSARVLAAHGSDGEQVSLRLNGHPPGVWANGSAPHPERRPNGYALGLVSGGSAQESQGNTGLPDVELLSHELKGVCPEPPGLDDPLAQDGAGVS
Protocol: Cell culture and membrane preparation. Sf9 cells were cultured in Grace's medium supplemented with 10% fetal bovine serum, 2.5 μg/ml amphotericin B and 50 μg/ml gentamycin in an atmosphere of 50% N2/50% O2. Viral infection was performed at a density of 2.5×10^6 cells/mL with a multiplicity of infection of two for each virus used. Infected cells were harvested 3 days post-infection and washed twice in insect PBS (PBS pH 6.3). Cells were then resuspended in lysis buffer (20 mM HEPES pH 7.5, 150 mM NaCl, 3 mM MgCl2, 1 mM β-mercaptoethanol (BME), 5 μg/mL leupeptin, 5 μg/mL pepstatin A, 1 μg/mL aprotinin, and 0.1 mM PMSF) and snap frozen for storage at −80° C. Cells were thawed on ice, brought to 30 mL total volume in lysis buffer, and burst by N2 cavitation (600 psi for 20 minutes). A low-speed centrifugation was performed to remove any unlysed cells (1000×g for 10 minutes), followed by a high-speed centrifugation (17,000×g for 30 minutes). The pellet from the final centrifugation was homogenized in buffer containing 20 mM HEPES pH 8, 100 mM NaCl, 1% glycerol, 2 μg/mL leupeptin, 2 μg/mL pepstatin A, 2 μg/mL Aprotinin, 0.1 mM PMSF, and 10 μM GDP using a small glass homogenizer followed by passage through a 26 gauge needle. Membranes were aliquoted, snap frozen in liquid N2, and stored at −80° C. Membranes from cells stably expressing the human A1 AR(CHO K1 cells) or A3 AR (HEK 293 cells) were prepared as described (Robeva et al., 1996).
Radioligand Binding Assays. Radioligand binding to recombinant human A2A receptors in Sf9 cell membranes was performed using either the radiolabeled agonist, ^125I-APE (Luthin et al., 1995) or the radiolabeled antagonist, ^125I-ZM241385 (^125I-ZM). To detect the high affinity, GTPγS-sensitive state of A1 and A3 AR, we used the agonist, ^125I-ABA (Linden et al., 1985; Linden et al., 1993). Binding experiments were performed in triplicate with 5 μg (A2A) or 25 μg (A1 and A3) membrane protein in a total volume of 0.1 mL HE buffer (20 mM HEPES and 1 mM EDTA) withl U/mL adenosine deaminase and 5 mM MgCl2 with or without 50 μM GTPγS. Membranes were incubated with radioligands at room temperature for three hours (for agonists) or two hours (for antagonists) in Millipore Multiscreen® 96-well GF/C filter plates and assays were terminated by rapid filtration on a cell harvester (Brandel, Gaithersburg, Md.) followed by 4×150 μL washes over 30 seconds with ice cold 10 mM Tris-HCl, pH 7.4, 10 mM MgCl2. Nonspecific binding was measured in the presence of 50 μM NECA. Competition binding assays were performed as described (Robeva et al., 1996) using 0.5-1 nM ^125I-APE, ^125I-ZM241385, or ^125I-ABA. Sometimes it is important to change pipette tips following each serial dilution to prevent transfer on tips of potent hydrophobic compounds. The Ki values for competing compound binding to a single site were derived from IC50 values with correction for radioligand and competing compound depletion as described previously (Linden, 1982). • Linden J (1982) Calculating the Dissociation Constant of an Unlabeled Compound From the Concentration Required to Displace Radiolabel Binding by 50%. J Cycl Nucl Res 8: 163-172. • Linden J, Patel A and Sadek S (1985) [^125I]Aminobenzyladenosine, a New Radioligand With Improved Specific Binding to Adenosine Receptors in Heart. Circ Res 56: 279-284. • Linden J, Taylor H E, Robeva A S, Tucker A L, Stehle J H, Rivkees S A, Fink J S and Reppert S M (1993) Molecular Cloning and Functional Expression of a Sheep A3 Adenosine Receptor with Widespread Tissue Distribution. Mol Pharmacol 44: 524-532. • Luthin D R, Olsson R A, Thompson R D, Sawmiller D R and Linden J (1995) Characterization of Two Affinity States of Adenosine A2A Receptors With a New Radioligand, 2-[2-(4-Amino-3-[^125I]Iodophenyl)Ethylamino] Adenosine. Mol Pharmacol 47: 307-313. • Robeva A S, Woodard R, Luthin D R, Taylor H E and Linden J (1996) Double Tagging Recombinant A1- and A2A-Adenosine Receptors With Hexahistidine and the FLAG Epitope. […]

[2] = tested on: human neutrophils; test: Neutrophil oxidative activity (luminol enhanced chemiluminescence); format: cell-based; conditions: oxidative activity assay, purified human neutrophils, fMLP-stimulated chemiluminescence, read-out: Functional Activity
From the text: Chemiluminescence Methods: Luminol enhanced chemiluminescence, a measure of neutrophil oxidative activity, is dependent upon both superoxide production and mobilization of the granule enzyme myeloperoxidase. The light is emitted from unstable high-energy oxygen species such as hypochlorous acid and singlet oxygen generated by activated neutrophils.
Purified human neutrophils (2×10^6/ml) suspended in Hanks balanced salt solution containing 0.1% human serum albumin (HA), adenosine deaminase (1 U/mL) and rolipram (100 nM) were incubated (37 C) in a water bath for 15 min with or without rhTNF (10 U/ml). Following incubation 100 µL aliquots of the PMN were transferred to wells (White walled clear bottom 96 well tissue culture plates Costar #3670; 2 wells/condition) containing […] and luminol (final concentration […]) with or without adenosine agonist (final agonist concentrations 0.01-1000 nM). The plate was incubated 5 min (37 C) and then fMLP (50 l in HA; final concentration […]) was added to all wells.
Peak chemiluminescence was determined with a Victor 1420 Multilabel Counter in the chemiluminescence mode using the Wallac Workstation software. Data are presented as peak chemiluminescence as percent of activity in the absence of an adenosine agonist. The EC50 was determined using PRISM software. All compounds were tested with PMNs from three separate donors.
Effect of A2A Agonists on Neutrophil Oxidative Activity: f-met-leu-phe (fMLP), luminol, superoxide dismutase, cytochrome C, fibrinogen, adenosine deaminase, and trypan blue were obtained from Sigma Chemical. Ficoll-hypaque was purchased from ICN (Aurora, Ohio), and Cardinal Scientific (Santa Fe, N. Mex.) and Accurate Chemicals and Scientific (Westerbury, N.Y.). Endotoxin (lipopolysaccharide; E. coli K235) was from List Biologicals (Campbell, Calif.). Hanks balanced salt solution (HBSS), and limulus amebocyte lysate assay kit were from BioWittaker (Walkersville, Md.). Human serum albumin (HSA) was from Cutter Biological (Elkhart, Ind.). Recombinant human tumor necrosis factor-α was supplied by Dianippon Pharmaceutical Co. Ltd. (Osaka, Japan). ZM241385 (4-(2-[7-amino-2-(2-furyl)[1,2,4]triazolo[2,3-a][1,3,5]triazin-5-yl amino]ethyl)phenol) was a gift from Simon Poucher, Zeneca Pharmaceuticals, Cheshire, UK. Stock solutions (1 mM and 10 mM in DMSO) were made and stored at −20° C.
Human neutrophil preparation: Purified neutrophils (98% neutrophils and >95% viable by trypan blue exclusion) containing <1 platelet per 5 neutrophils and <50 pg/ml endotoxin (limulus amebocyte lysate assay) were obtained from normal heparinized (10 U/ml) venous blood by a one step Ficoll-hypaque separation procedure (A. Ferrante et al., J. Immunol. Meth., 36, 109 (1980)). […]

## COC(=O)N(C)CC#Cc1nc(N)c2ncn([C@@H]3O[C@H](C(=O)NC4CC4)C(O)C3O)c2n1 (some centres unmarked) [Example 1, N-Cyclopropyl 2-{3-[methoxycarbonyl(methyl)amino]propyn-1-yl}adenosine-5′-uronamide]
[1]
  Ki: < 10 nM
[2]
  EC50: < 10 nM

## CN(CC#Cc1nc(N)c2ncn([C@@H]3O[C@H](C(=O)NC4CC4)C(O)C3O)c2n1)C(=O)Oc1ccccc1 (some centres unmarked) [Example 2, N-Cyclopropyl 2-{3-[phenoxycarbonyl(methyl)amino]propyn-1-yl}adenosine-5′-uronamide]
[1]
  Ki: < 10 nM
[2]
  EC50: < 10 nM

## CN(CC#Cc1nc(N)c2ncn([C@@H]3O[C@H](C(=O)NC4CC4)C(O)C3O)c2n1)C(=O)OCCOCc1ccccc1 (some centres unmarked) [Example 3, N-Cyclopropyl 2-{3-[2-((benzyloxy)ethoxycarbonyl)(methyl)amino]propyn-1-yl}adenosine-5′-uronamide]
[1]
  Ki: < 10 nM
[2]
  EC50: < 10 nM

## CN(CC#Cc1nc(N)c2ncn([C@@H]3O[C@H](C(=O)NC4CC4)C(O)C3O)c2n1)C(=O)Oc1ccc(F)cc1 (some centres unmarked) [Example 4, N-Cyclopropyl 2-{3-[4-fluorophenoxycarbonyl(methyl)amino]propyn-1-yl}adenosine-5′-uronamide]
[1]
  Ki: 11 to 100 nM
[2]
  EC50: < 10 nM

## CCN(CC#Cc1nc(N)c2ncn([C@@H]3O[C@H](C(=O)NC4CC4)C(O)C3O)c2n1)C(=O)OC (some centres unmarked) [Example 6, N-Cyclopropyl 2-{3-[4-(ethyl(methoxycarbonyl)amino)]propyn-1-yl}adenosine-5′-uronamide]
[1]
  Ki: < 10 nM
[2]
  EC50: < 10 nM

## CCCN(CC#Cc1nc(N)c2ncn([C@@H]3O[C@H](C(=O)NC4CC4)C(O)C3O)c2n1)C(=O)OC (some centres unmarked) [Example 7, N-Cyclopropyl 2-{3-[4-(methoxycarbonyl(propyl)amino)]propyn-1-yl}adenosine-5′-uronamide]
[1]
  Ki: < 10 nM
[2]
  EC50: < 10 nM

## COC(=O)N(CC#Cc1nc(N)c2ncn([C@@H]3O[C@H](C(=O)NC4CC4)C(O)C3O)c2n1)C(C)C (some centres unmarked) [Example 8, N-Cyclopropyl 2-{3-[4-(isopropyl(methoxycarbonyl)amino)]propyn-1-yl}adenosine-5′-uronamide]
[1]
  Ki: < 10 nM
[2]
  EC50: < 10 nM

## COC(=O)N(CC#Cc1nc(N)c2ncn([C@@H]3O[C@H](C(=O)NC4CC4)C(O)C3O)c2n1)CC(C)C (some centres unmarked) [Example 9, N-Cyclopropyl 2-{3-[4-(isobutyl(methoxycarbonyl)amino)]propyn-1-yl}adenosine-5′-uronamide]
[1]
  Ki: < 10 nM
[2]
  EC50: < 10 nM

## COC(=O)N(CC#Cc1nc(N)c2ncn([C@@H]3O[C@H](C(=O)NC4CC4)C(O)C3O)c2n1)Cc1ccccc1 (some centres unmarked) [Example 10, N-Cyclopropyl 2-{3-[4-(benzyl(methoxycarbonyl)amino)]propyn-1-yl}adenosine-5′-uronamide]
[1]
  Ki: 11 to 100 nM
[2]
  EC50: > 100 nM

## COC(=O)N(CC#Cc1nc(N)c2ncn([C@@H]3O[C@H](C(=O)NC4CC4)C(O)C3O)c2n1)C1CC1 (some centres unmarked) [Example 11, N-Cyclopropyl 2-{3-[4-(cyclopropyl(methoxycarbonyl)amino)]propyn-1-yl}adenosine-5′-uronamide]
[1]
  Ki: < 10 nM
[2]
  EC50: < 10 nM

## COC(=O)N(CC#Cc1nc(N)c2ncn([C@@H]3O[C@H](C(=O)NC4CC4)C(O)C3O)c2n1)CC1CC1 (some centres unmarked) [Example 12, N-Cyclopropyl 2-{3-[4-(cyclopropylmethyl(methoxycarbonyl)amino)]propyn-1-yl}adenosine-5′-uronamide]
[1]
  Ki: < 10 nM
[2]
  EC50: < 10 nM

## COC(=O)N(CC#Cc1nc(N)c2ncn([C@@H]3O[C@H](C(=O)NC4CC4)C(O)C3O)c2n1)C1CCC1 (some centres unmarked) [Example 13, N-Cyclopropyl 2-{3-[4-(cyclobutyl(methoxycarbonyl)amino)]propyn-1-yl}adenosine-5′-uronamide]
[1]
  Ki: 11 to 100 nM
[2]
  EC50: < 10 nM

## COC(=O)N(CC#Cc1nc(N)c2ncn([C@@H]3O[C@H](C(=O)NC4CC4)C(O)C3O)c2n1)C1CCCC1 (some centres unmarked) [Example 14, N-Cyclopropyl 2-{3-[4-(cyclopentyl(methoxycarbonyl)amino)]propyn-1-yl}adenosine-5′-uronamide]
[1]
  Ki: < 10 nM
[2]
  EC50: < 10 nM

## COCCN(CC#Cc1nc(N)c2ncn([C@@H]3O[C@H](C(=O)NC4CC4)C(O)C3O)c2n1)C(=O)OC (some centres unmarked) [Example 15, N-Cyclopropyl 2-{3-[4-(methoxycarbonyl(2-methoxyethyl)amino)]propyn-1-yl}adenosine-5′-uronamide]
[1]
  Ki: < 10 nM
[2]
  EC50: < 10 nM

## COCCCN(CC#Cc1nc(N)c2ncn([C@@H]3O[C@H](C(=O)NC4CC4)C(O)C3O)c2n1)C(=O)OC (some centres unmarked) [Example 16, N-Cyclopropyl 2-{3-[4-(methoxycarbonyl(3-methoxypropyl)amino)]propyn-1-yl}adenosine-5′-uronamide]
[1]
  Ki: 11 to 100 nM
[2]
  EC50: < 10 nM

## CCOCCCN(CC#Cc1nc(N)c2ncn([C@@H]3O[C@H](C(=O)NC4CC4)C(O)C3O)c2n1)C(=O)OC (some centres unmarked) [Example 17, N-Cyclopropyl 2-{3-[4-((3-ethoxypropyl)(methoxycarbonyl)amino)]propyn-1-yl}adenosine-5′-uronamide]
[1]
  Ki: 11 to 100 nM
[2]
  EC50: > 100 nM
